Assay results as given in patent US11419335B2, “N-arylated analogues and uses thereof” (University of Florida Research Foundation, Incorporated, priority 2016, dated 2022).
Like-named read-outs stand apart in the source and are kept apart here. Marks after values point to notes of the source that are not given here.

How the values were obtained:
[1] = test system: SA-147 (clinical isolate); assay: MIC broth microdilution, SA-147; assay type: cell-based, Staphylococcus aureus; conditions: Staphylococcus aureus; Table 3
Description: (§1) The minimum inhibitory concentration (MIC) for each tested compound was determined by the broth microdilution method as recommended by the Clinical and Laboratory Standards Institute (CLSI). In a 96-well plate, eleven two-fold serial dilutions of each compound were made in a final volume of 100 μL Luria Broth. Each well was inoculated with ˜10^5 bacterial cells at the initial time of incubation, prepared from a fresh log phase culture (OD600 of 0.5 to 1.0 depending on bacterial strain). […] (MIC values were supported by spectrophotometric readings at OD600). DMSO served as our vehicle and negative control in each microdilution MIC assay. DMSO was serially diluted with a top concentration of 1% v/v.
(§2) Each well was inoculated with ˜10^5 bacterial cells at the initial time of incubation, prepared from a fresh log phase culture (OD600 of 0.5 to 1.0 depending on bacterial strain). […] The concentration range tested for each compound during this study was 0.10 to 100 μM. DMSO served as our vehicle and negative control in each microdilution MIC assay. DMSO was serially diluted with a top concentration of 1% v/v. All MIC values were obtained from a minimum of three independent experiments.

[2] = test system: human red blood cells (hRBC); assay: Hemolysis of red blood cells; assay type: cell-based
How it was run: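 hRBCs (2% suspension) exposed to compounds at 0.2–200 μM (ten-point dose-response) for 1 h at 37 °C; after centrifugation, haemoglobin release read as supernatant OD at 405 nm. DMSO set as 0% and Triton X as 100% haemolysis; HC50 from dose-response curves, three independent experiments.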

MRSA BAA-1707 = assay: MIC broth microdilution, MRSA BAA-1707; assay type: cell-based, Staphylococcus aureus; conditions: for MIC: Staphylococcus aureus
How it was run: (§3)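 Broth microdilution per CLSI, with eleven two-fold serial compound dilutions in Luria Broth spanning 0.10 to 100 μM. DMSO vehicle control topped at 1% v/v; at least three independent experiments.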

[3] = test system: methicillin-resistant Staphylococcus epidermidis (MRSE strain ATCC 35984); assay: MIC broth microdilution, MRSE 35984; assay type: cell-based; conditions: for MIC: Staphylococcus epidermidis
How it was run: (§4)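 CLSI broth microdilution in Luria Broth: eleven two-fold compound dilutions (0.10 to 100 μM), each well inoculated with ~10^5 log-phase cells. MIC is the lowest concentration preventing growth after 16 to 18 hours at 37° C, supported by OD600. DMSO vehicle, top 1% v/v.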

[4] = test system: SA-156 (clinical isolate); assay: MIC broth microdilution, SA-156; assay type: cell-based, Staphylococcus aureus; conditions: Staphylococcus aureus; Table 3
Description: as §1, §2

MRSA BAA-44 = assay: MIC broth microdilution, MRSA BAA-44; assay type: cell-based, Staphylococcus aureus; conditions: Staphylococcus aureus; Table 3
Description: as §1, §2

[5] = test system: SA-129 (clinical isolate); assay: MIC broth microdilution, SA-129; assay type: cell-based, Staphylococcus aureus; conditions: Staphylococcus aureus; Table 3
Description: as §1, §2

[6] = test system: vancomycin-resistant Enterococcus faecium (VRE strain ATCC 700221); assay: MIC broth microdilution, VRE 700221; assay type: cell-based
How it was run: as §4

[7] = test system: SA-138 (clinical isolate); assay: MIC broth microdilution, SA-138; assay type: cell-based, Staphylococcus aureus; conditions: Staphylococcus aureus; Table 3
Description: as §1, §2

[8] = test system: methicillin-sensitive Staphylococcus aureus ATCC 29213; assay: MIC broth microdilution, S. aureus 29213; assay type: cell-based; conditions: Staphylococcus aureus, ATCC29213; Table 3
How it was run: as §3

[9] = test system: MRSA-1 (clinical isolate); assay: MIC broth microdilution, MRSA-1; assay type: cell-based, Staphylococcus aureus; conditions: Staphylococcus aureus, MRSA; Table 3
Description: as §1, §2

[10] = test system: Pseudomonas aeruginosa (PAO1); assay: MIC broth microdilution, PAO1; assay type: cell-based
How it was run: as §4

[11] = test system: methicillin-resistant Staphylococcus aureus MRSA-2 (clinical isolate); assay: MIC broth microdilution, MRSA-2; assay type: cell-based; conditions: for MIC: Staphylococcus aureus
How it was run: as §4

[12] = test system: Acinetobacter baumannii (ATCC 1794); assay: MIC broth microdilution, A. baumannii 1794; assay type: cell-based; conditions: for MIC: Acinetobacter baumannii, ATCC1794
How it was run: as §4

MIC [1]: 4.69 µM
MIC (MRSA BAA-1707; Table 1, read-out: MIC MRSA BAA-1707): 2.35 µM
MIC (MRSA BAA-1707; Table 2, read-out: MRSA BAA-1707 MIC): 2.35 µM
MIC (MRSA BAA-1707; Table 4, read-out: MIC MRSA 1707): 2.35 µM
MIC MRSA BAA-1707 (MRSA BAA-1707; Table 3): 2.35^a μM
MIC ([3]; Table 1, read-out: MIC MRSE 35984): 4.69 µM
MIC ([3]; Table 2, read-out: MRSE 35984 MIC): 4.69 µM
MIC S. epidermidis MRSE 35984 ([3]; Table 1A): 4.69^a
MIC MRSE 35984 ([3]; Table 4): 4.69a micromolar
MIC [4]: 6.25 µM
MIC (MRSA BAA-44): 4.69 µM
MIC [5]: 4.69 µM
MIC ([6]; Table 1, read-out: MIC VRE 700221): 3.13 µM
MIC E. faecium VRE 700221 ([6]; Table 1A): 3.13 µM
MIC ([6]; Table 2, read-out: VRE 700221 MIC): 3.13 µM
MIC VRE 700221 ([6]; Table 4): 3.13 µM
MIC [7]: 6.25 µM
MIC [8]: 4.69 µM
MIC [9]: 6.25 µM
MIC ([10]; Pseudomonas aeruginosa, PAO1, Table 1): > 100 µM
MIC PAO1 ([10]; Table 1A): > 100 µM
MIC PAO1 ([10]; Table 4): >100 µM
MIC ([11]; BAA-1707 / MRSA, MRSA-2 and MRSA BAA-1707, read-out: MIC against two MRSA strains): 2.35 to 4.69 µM
MIC ([11]; MRSA, Table 1, read-out: MIC MRSA-2): 4.69 µM
MIC ([11]; MRSA, Table 4, read-out: MIC MRSA-2): 4.69 µM
MIC ([11]; MRSA, Table 3, read-out: MIC MRSA-2): 3.13 µM
MIC MRSA-2 ([11]; Table 1A): 4.69^a
MIC ([12]; Table 1, read-out: MIC A. baumannii 1794): 37.5 µM
MIC ([12]; Table 4, read-out: MIC A. bau. 1794): 37.5 µM
MIC A. baumannii 1794 ([12]; Table 1A): 37.5^a
Compound: CCCCCCCCCCCCCCCCn1cc[n+](Cc2ccccc2)c1C [NH125, 3-benzyl-1-hexadecyl-2-methyl-1H-imidazol-3-ium bromide, reference compound]
hemolytic activity [2]: potent hemolytic activities
HC50 ([2]; human, 1 h, pH 7.2): 35.6 µM
